Marks after values point to notes of the source that are not given here.
Key:
[1] = target: T1, lipase from porcine pancreas (Sus scrofa, UniProt P00591); assay: Inhibitory action against lipase: amount of free fatty acid produced from bile acid micelles (artificial in vivo system); type: biochemical
T1 construct: lipase from porcine pancreas [SIGMA]; purchased SIGMA; host or cells: porcine pancreas (tissue-derived preparation)
T1 sequence (P00591 1-450): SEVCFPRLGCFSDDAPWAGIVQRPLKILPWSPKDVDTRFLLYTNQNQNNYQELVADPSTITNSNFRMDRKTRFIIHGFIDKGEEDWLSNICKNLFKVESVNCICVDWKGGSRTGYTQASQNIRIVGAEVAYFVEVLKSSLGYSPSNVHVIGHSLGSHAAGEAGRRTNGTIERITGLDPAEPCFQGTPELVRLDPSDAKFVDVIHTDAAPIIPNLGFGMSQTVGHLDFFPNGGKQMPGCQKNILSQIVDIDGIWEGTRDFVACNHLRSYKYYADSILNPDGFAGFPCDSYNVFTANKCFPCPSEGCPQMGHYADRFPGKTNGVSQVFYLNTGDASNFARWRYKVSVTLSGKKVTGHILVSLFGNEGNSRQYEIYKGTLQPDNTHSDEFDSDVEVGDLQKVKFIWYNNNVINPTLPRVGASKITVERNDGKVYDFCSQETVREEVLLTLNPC
Procedure: In this example, an emulsification liquid containing bile acid micelles was produced as an artificial in vivo system. In the artificial in vivo system, the inhibitory action of the test samples against the lipolytic activity by lipase in vivo was evaluated by measuring the amount of free fatty acid collected from the bile acid micelles after application of lipase in the presence of the test samples.
10 g of olive oil (Wako Pure Chemical Industries, Ltd.) was added to each test sample (30 mg in terms of CA amount), which was heated at 70° C. in an oven for 20 minutes to be dissolved.
0.92 g of olive oil in which each test sample was dissolved, 40 mg of egg yolk lecithin (Wako Pure Chemical Industries, Ltd.), and 24 mL of the bile acid solution were added to a 50-mL tube, followed by cooling with ice, and thereafter emulsification was performed thereon using an ultrasonic homogenizer. […] Thereafter, 2.5 mL of a 0.1% lipase solution (0.1N TRIS-HCl buffer solution of lipase from porcine pancreas [SIGMA]) was added thereto, which was mixed with stirring using a vortex mixer for 10 seconds, followed by incubation in a water bath at 37° C. for 10 minutes. The tube was moved into an oil bath at 70° C., was subjected to enzyme inactivation for 15 minutes, and thereafter was mixed again with stirring using a vortex mixer to collect 100 μL.
The amount of free fatty acid in the reaction solution was determined using NEFA-C Test wako. That is, 800 μL of a coloring reagent A was added to 100 μL of the sample, which was stirred using a vortex mixer, and thereafter was heated at 37° C. for 10 minutes. After cooling, 1600 μL of a coloring reagent B was added thereto, followed by stirring, and was heated again at 37° C. for 10 minutes. This was subjected to an ultraviolet/visible spectrophotometer to measure an absorbance at 550 nm. Thus, the amount of free fatty acid produced was obtained. Each reaction solution was measured 3 times or 4 times by the same operation.

blood GIP = assay: Inhibitory action against blood GIP increase, intragastric administration test of starch paste sample; type: in vivo, C57BL/6J mice; conditions: Table 6, AUC for 120 minutes, relative value with control administration group taken as 100, 175 μM in terms of CA
Procedure: For experiments, C57BL/6J mice (male, 8 week-old, manufactured by CLEA Japan, Inc.) grouped so that each group has the same body weight (N=16/group) were used and were subjected to the tests.
Starch (waxy corn, Amioca) was dissolved in distilled water in an amount 4 times the amount of the starch and gelatinized (pregelatinized) by autoclaving (at 121° C. under a pressure of 2 atmospheres for 20 minutes). Each of the test samples (Sample Nos. 2 to 4 and 8) shown in Table 4 was emulsified in triolein containing egg yolk lecithin and albumin to obtain an emulsified oil. […]
The starch paste sample containing the test sample was intragastrically administered to a mouse fasted for 20 hours, and part of the blood was collected from the orbital venous plexus over time (before the administration, and at 10, 30, 60, and 120 minutes after the administration). […] The collected blood was subjected to centrifugation, and thereafter the blood plasma was prepared and measured using GIP ELISA kit (EMD Millipore Corporation). The blood GIP amount of each sample after the administration was calculated by measuring the maximum value (Cmax) and the area under the concentration curve (AUC) for 120 minutes. […]

[2] = in vivo; Patent Literatures 9 to 11; cited from earlier work

Q: What does the source list for `CC(C)=CCC[C@@H](C)[C@H]1CC[C@@]2(C)[C@@H]3CC[C@H]4C(C)(C)[C@@H](O)CC[C@@]45C[C@@]35CC[C@]12C` [Purified product of cycloartenol, cycloartenol]?
A: amount of free fatty acid produced compared to the control / lipase inhibitory activity (in words) ([1]; Example 1): reduced; Amount of free fatty acid produced, Average ([1]; Example 1, test sample 30 mg in terms of CA in 10 g olive oil, lipase 37° C. 10 minutes, NEFA-C Test wako, absorbance 550 nm, control (olive oil alone) 0.376): 0.276; amount of free fatty acid produced compared with the control / lipase inhibitory activity (in words) ([1]; Example 2): reduced; Amount of free fatty acid produced, Average ([1]; Example 2, same manner as Example 1, control (olive oil alone) 0.296): 0.238; GIP (AUC) (blood GIP): 81 *; inhibitory activity against GIP increase [2]: exerts inhibitory activities; inhibitory activity against postprandial blood glucose increase [2]: exerts inhibitory activities

Source: patent US20170014430A1, “Cycloartenol-Containing Composition” (KAO CORPORATION, priority 2014, published 2017)
